Read-outs that look alike come from different tables or passages of the source.
Tests used:
NCI-H358 (K-Ras G12C) = experiment: CellTiter-Glo cell viability assay, NCI-H358; assay type: cell-based, human; conditions: NCI-H358, 5-day treatment, class symbols, read-out: Additional H358 Cell Viability assay data (K-Ras G12C, IC50)
Summary of the method: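 Four-parameter logistic fits were applied to luminescence data normalized against DMSO-treated wells. Readings were taken on day 5 following direct compound addition, after roughly 30 minutes at room temperature.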

[1] = test system: NCI-H358 cells (K-Ras G12C); experiment: Potency assay: pERK in NCI-H358 cells; assay type: cell-based, human; conditions: H358 KRAS G12C, read-out: pERK EC50
Summary of the method: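 Compounds are dosed as ten 3-fold dilutions from a 10 mM DMSO stock, in duplicate, and left on cells for 4 h at 37 °C, 5% CO2. Phospho-ERK1/2 is then quantified by AlphaLISA SureFire Ultra or In-Cell Western, and IC50 is derived from a 4-parameter sigmoid against log concentration.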

SMILES | IC50 (NCI-H358 (K-Ras G12C)) | EC50 [1] | IC50 (NCI-H358 (K-Ras G12C); Homo sapiens, NCI-H358, 120 h) | EC50 ([1]; Homo sapiens, NCI-H358)
CC#CC(=O)N1CC[C@H](C(=O)N(C)[C@@H](C(=O)N[C@H]2Cc3cc(O)cc(c3)-c3ccc4c(c3)c(c(-c3cccnc3[C@H](C)OC)n4CC)CC(C)(C)COC(=O)[C@@H]3CCCN(N3)C2=O)C(C)C)C1 (atropisomer, axis not shown) [Example A199] | 100 to 1000 nM | < 5000 nM | – | –
CCn1c(-c2cnccc2COC)c2c3cc(ccc31)-c1cc(O)cc(c1)C[C@H](NC(=O)[C@H](C(C)C)N(C)C(=O)[C@H]1CCN(C(=O)/C=C/CN(C)C)C1)C(=O)N1CCC[C@H](N1)C(=O)OCC(C)(C)C2 [Example A87] | – | – | 10 to 100 nM | < 5000 nM
C=CC(=O)N1CCC(F)(C(=O)N(C)[C@H](C(=O)N[C@H]2Cc3cc(O)cc(c3)-c3ccc4c(c3)c(c(-c3ccccc3CCOC)n4CC)CC(C)(C)COC(=O)[C@@H]3CCCN(N3)C2=O)C(C)C)CC1 [Example A11] | – | – | 100 to 1000 nM | < 5000 nM
C=CC(=O)N1CC[C@H](C(=O)N(C)[C@H](C(=O)N[C@H]2Cc3cc(O)cc(c3)-c3ccc4c(c3)c(c(-c3ccc(CN5CCCC5)cc3)n4CC)CC(C)(C)COC(=O)[C@@H]3CCCN(N3)C2=O)C(C)C)C1 [Example A10] | – | – | 10 to 100 nM | < 5000 nM
C=CS(=O)(=O)N1CC[C@H](C(=O)N(C)[C@H](C(=O)N[C@H]2Cc3cc(O)cc(c3)-c3ccc4c(c3)c(c(-c3cccnc3COC)n4CC)CC(C)(C)COC(=O)[C@@H]3CCCN(N3)C2=O)C(C)C)C1 [Example A69] | – | – | 10 to 100 nM | < 5000 nM
C=CC(=O)N1CC[C@H](C(=O)N(C)[C@H](C(=O)N[C@H]2Cc3cc(O)cc(c3)-c3ccc4c(c3)c(c(-c3ccc(C5CCN(C)CC5)cc3)n4CC)CC(C)(C)COC(=O)[C@@H]3CCCN(N3)C2=O)C(C)C)C1 [Example A39] | – | – | 10 to 100 nM | < 5000 nM
C=CC(=O)N1CC[C@H](C(=O)N(C)[C@H](C(=O)N[C@H]2Cc3cc(O)cc(c3)-c3ccc4c(c3)c(c(-c3ccc(N5CCN(C)CC5)nc3)n4CC)CC(C)(C)COC(=O)[C@@H]3CCCN(N3)C2=O)C(C)C)C1 [Example A89, (2S)-N-[(8S,14S)-22-ethyl-4-hydroxy-18,18-dimethyl-21-[6-(4-methylpiperazin-1-yl)pyridin-3-yl]-9,15-dioxo-16-oxa-10,22,28-triazapentacyclo[18.5.2.1^2,^6.1^10,^14.0^23,^27]nonacosa-1(26),2,4,6(29),20,23(27),24-heptaen-8-yl]-3-methyl-2-{N-methyl-1-[(3S)-1-(prop-2-enoyl)pyrrolidin-3-yl]formamido}butanamide] | – | – | 10 to 100 nM | < 5000 nM
C=CC(=O)N1CC[C@H](C(=O)N(C)[C@H](C(=O)N[C@H]2Cc3cc(O)cc(c3)-c3ccc4c(c3)c(c(-c3cncc(CN(C)C)c3)n4CC)CC(C)(C)COC(=O)[C@@H]3CCCN(N3)C2=O)C(C)C)C1 [Example A73] | – | – | 10 to 100 nM | < 5000 nM
C=CC(=O)N1CC[C@H](C(=O)N(C)[C@H](C(=O)N[C@H]2Cc3cc(N)cc(c3)-c3ccc4c(c3)c(c(-c3ccccc3COC)n4CC)CC(C)(C)COC(=O)[C@@H]3CCCN(N3)C2=O)C(C)C)C1 [Example A42] | – | – | 100 to 1000 nM | < 5000 nM
C=CC(=O)N1CC[C@H](C(=O)N(C)[C@H](C(=O)N[C@H]2Cc3cc(O)cc(c3)-c3ccc4c(c3)c(c(-c3ccc5c(c3)OCCN5C)n4CC)CC(C)(C)COC(=O)[C@@H]3CCCN(N3)C2=O)C(C)C)C1 [Example A50] | – | – | 100 to 1000 nM | < 5000 nM
C=CC(=O)N1CC(C(=O)N(C)[C@H](C(=O)N[C@H]2Cc3cc(O)cc(c3)-c3ccc4c(c3)c(c(-c3cccnc3COC)n4CC)CC(C)(C)COC(=O)[C@@H]3CCCN(N3)C2=O)C(C)C)C1 [Example A70] | – | – | 10 to 100 nM | < 5000 nM
C=CC(=O)N1CC[C@H](C(=O)N(C)[C@H](C(=O)N[C@H]2Cc3cc(O)cc(c3)-c3ccc4c(c3)c(c(-c3ccc(CC(=O)O)cc3)n4CC)CC(C)(C)COC(=O)[C@@H]3CCCN(N3)C2=O)C(C)C)C1 [Example A21] | – | – | > 1000 nM | < 5000 nM
C=CC(=O)N1CC[C@H](C(=O)N(C)[C@H](C(=O)N[C@H]2Cc3cc(O)cc(c3)-c3ccc4c(c3)c(c(-c3ccc(CN(C)C)cc3)n4CC)CC(C)(C)COC(=O)[C@@H]3CCCN(N3)C2=O)C(C)C)C1 [Example A3] | – | – | 100 to 1000 nM | < 5000 nM
C=CC(=O)N1CC[C@H](C(=O)N(C)[C@H](C(=O)N[C@H]2Cc3cc(O)cc(c3)-c3ccc4c(c3)c(c(-c3cccnc3COC)n4CC#N)CC(C)(C)COC(=O)[C@@H]3CCCN(N3)C2=O)C(C)C)C1 [Example A93] | – | – | 10 to 100 nM | < 5000 nM
C=CC(=O)N1CC[C@H](C(=O)N(C)[C@H](C(=O)N[C@H]2Cc3cccc(c3)-c3ccc4c(c3)c(c(-c3ccccc3CCOC)n4CC)CC(C)(C)COC(=O)[C@@H]3CCCN(N3)C2=O)C(C)C)C1 (atropisomer, axis not shown) [Example A24] | – | – | > 1000 nM | < 5000 nM
C=CC(=O)N1CC[C@H](C(=O)N(C)[C@H](C(=O)N[C@H]2Cc3cc(OC(=O)CCN4CCN(C)CC4)cc(c3)-c3ccc4c(c3)c(c(-c3ccccc3CCOC)n4CC)CC(C)(C)COC(=O)[C@@H]3CCCN(N3)C2=O)C(C)C)C1 [Example A7] | – | – | 100 to 1000 nM | < 5000 nM
CCn1c(-c2ccccc2CN(C)C)c2c3cc(ccc31)-c1cc(O)cc(c1)C[C@H](NC(=O)[C@H](C(C)C)N(C)C(=O)c1ccc(NC(=O)/C=C/CN(C)C)cn1)C(=O)N1CCC[C@H](N1)C(=O)OCC(C)(C)C2 [Example A46] | – | – | > 1000 nM | < 5000 nM
C=CC(=O)N1CC[C@H](C(=O)N(C)[C@H](C(=O)N[C@H]2Cc3nc(cs3)-c3ccc4c(c3)c(c(-c3cccnc3COC)n4CC)CC(C)(C)COC(=O)[C@@H]3CCCN(N3)C2=O)C(C)C)C1 [Example A94] | – | – | 10 to 100 nM | < 5000 nM

The remaining lines, values ahead:

IC50 (NCI-H358 (K-Ras G12C)) | EC50 [1] | IC50 (NCI-H358 (K-Ras G12C); Homo sapiens, NCI-H358, 120 h) | EC50 ([1]; Homo sapiens, NCI-H358) | SMILES
– | – | 100 to 1000 nM | < 5000 nM | C=CC(=O)N1CCCN(C(=O)N(C)[C@H](C(=O)N[C@H]2Cc3cc(O)cc(c3)-c3ccc4c(c3)c(c(-c3ccccc3CCOC)n4CC)CC(C)(C)COC(=O)[C@@H]3CCCN(N3)C2=O)C(C)C)CC1 [Example A13]
– | – | 100 to 1000 nM | < 5000 nM | C=CC(=O)N1CC[C@H](C(=O)N(C)[C@H](C(=O)N[C@H]2Cc3cc(O)cc(c3)-c3ccc4c(c3)c(c(-c3ccccc3[C@@H](C)OC)n4CC)CC(C)(C)COC(=O)[C@@H]3CCCN(N3)C2=O)C(C)C)C1 [Example A29]
– | – | 10 to 100 nM | < 5000 nM | C=CC(=O)N1CC[C@H](C(=O)N(C)[C@H](C(=O)N[C@H]2Cc3cc(O)cc(c3)-c3ccc4c(c3)c(c(-c3cncc(COC)c3)n4CC)CC(C)(C)COC(=O)[C@@H]3CCCN(N3)C2=O)C(C)C)C1 [Example A83]
– | – | 10 to 100 nM | < 5000 nM | C=CC(=O)N1C[C@H](C)[C@H](C(=O)N(C)[C@H](C(=O)N[C@H]2Cc3cc(O)cc(c3)-c3ccc4c(c3)c(c(-c3ccccc3CCOC)n4CC)CC(C)(C)COC(=O)[C@@H]3CCCN(N3)C2=O)C(C)C)C1 [Example A41]
– | – | 10 to 100 nM | < 5000 nM | C=CC(=O)N1CC[C@H](C(=O)N(C)[C@H](C(=O)N[C@H]2Cc3cc(O)cc(c3)-c3ccc4c(c3)c(c(-c3cccnc3COC)n4CC)CC(C)(C)COC(=O)[C@@H]3CCCN(N3)C2=O)C(C)C)C1 [Example A16]
– | – | 100 to 1000 nM | < 5000 nM | C=CC(=O)N1CC[C@H](C(=O)N(C)[C@H](C(=O)N[C@H]2Cc3cc(O)cc(c3)-c3cc(F)c4c(c3)c(c(-c3ccccc3CCOC)n4CC)CC(C)(C)COC(=O)[C@@H]3CCCN(N3)C2=O)C(C)C)C1 (atropisomer, axis not shown) [Example A53]
– | – | 10 to 100 nM | < 5000 nM | C=CC(=O)N1CC[C@H](C(=O)N(C)[C@H](C(=O)N[C@H]2Cc3cc(O)cc(c3)-c3ccc4c(c3)c(c(-c3ccccc3[C@H](C)OC)n4CC)CC(C)(C)COC(=O)[C@@H]3CCCN(N3)C2=O)C(C)C)C1 [Example A22]
– | – | 100 to 1000 nM | < 5000 nM | C=CC(=O)N1CCN(C(=O)N(C)[C@H](C(=O)N[C@H]2Cc3cc(O)cc(c3)-c3ccc4c(c3)c(c(-c3ccccc3CCOC)n4CC)CC(C)(C)COC(=O)[C@@H]3CCCN(N3)C2=O)C(C)C)CC1 [Example A18]
– | – | 10 to 100 nM | < 5000 nM | C=CC(=O)N1CC[C@H](C(=O)N(C)[C@H](C(=O)N[C@H]2Cc3cc(O)cc(c3)-c3ccc4c(c3)c(c(-c3ccccc3CN(C)C)n4CC)CC(C)(C)COC(=O)[C@@H]3CCCN(N3)C2=O)C(C)C)C1 [Example A5]
– | – | 10 to 100 nM | < 5000 nM | C=CC(=O)N1C[C@H](C)[C@H](C(=O)N(C)[C@H](C(=O)N[C@H]2Cc3cc(O)cc(c3)-c3ccc4c(c3)c(c(-c3ccccc3CN(C)C)n4CC)CC(C)(C)COC(=O)[C@@H]3CCCN(N3)C2=O)C(C)C)C1 [Example A52]

Source: patent publication US11566007B2, “Ras inhibitors” (Revolution Medicines, Inc., priority 2019, dated 2023)
